Reference: patent US10266560B2, “Bile acid analogs as FXR/TGR5 agonists and methods of use thereof” (Enanta Pharmaceuticals, Inc., priority 2014, dated 2019)
Read-outs that look alike come from different tables or passages of the source.

Biological target: Human FXR (NR1H4) (Homo sapiens (Human), UniProt Q96RI1)
Experiment: Human FXR (NR1H4) Assay (Gal4 promoter driven luciferase reporter transactivation in CHO cells)
Type: cell-based
Conditions: for Emax: CHO, read-out: Efficacy (%); for EC50: read-out: EC50; for Efficacy (%): efficacy normalized to chenodeoxycholic acid (CDCA) set as 100%
Description: Assays Human FXR (NR1H4) Assay
Determination of a ligand mediated Gal4 promoter driven transactivation to quantify ligand binding mediated activation of FXR. FXR Reporter Assay kit purchased from Indigo Bioscience (Catalogue number: IB00601) to determine the potency and efficacy of compound developed by Enanta that can induce FXR activation. The principle application of this reporter assay system is to quantify functional activity of human FXR. The assay utilizes non-human mammalian cells, CHO (Chinese hamster ovary) cells engineered to express human NR1H4 protein (referred to as FXR). Reporter cells also incorporate the cDNA encoding beetle luciferase which catalyzes the substrates and yields photon emission. Luminescence intensity of the reaction is quantified using a plate-reading luminometer, Envision. Reporter Cells include the luciferase reporter gene functionally linked to an FXR responsive promoter. Thus, quantifying changes in luciferase expression in the treated reporter cells provides a sensitive surrogate measure of the changes in FXR activity. […] The assay is according to the manufacturer's instructions. In brief, the assay was performed in white, 96 well plates using final volume of 200 ul containing cells with different doses of compounds. Retrieve Reporter Cells from −80° C. storage. Perform a rapid thaw of the frozen cells by transferring a 10 ml volume of 37° C. cell recovery medium into the tube of frozen cells. Recap the tube of Reporter Cells and immediately place it in a 37° C. water bath for 5-10 minutes. Retrieve the tube of Reporter Cell Suspension from the water bath. Sanitize the outside surface of the tube with a 70% alcohol swab, and then transfer it into the cell culture hood. Dispense 100 μl of cell suspension into each well of the 96-well Assay Plate. Transfer the plate into 37° C. incubator, allowing the cells adherent to the bottom of the well. Dilute compounds in Dilution Plate (DP), and administrate to cells at Assay Plate (AP). DMSO content of the samples was kept at 0.2%. Cells were incubated for additional 22 hours before luciferase activities were measured. Thirty minutes before intending to quantify FXR activity, remove Detection Substrate and Detection Buffer from the refrigerator and place them in a low-light area so that they may equilibrate to room temperature. Remove the plate's lid and discard all media contents by ejecting it into an appropriate waste container. Gently tap the inverted plate onto a clean absorbent paper towel to remove residual droplets. Cells will remain tightly adhered to well bottoms. Add 100 μl of luciferase detection reagent to each well of the assay plate. Allow the assay plate to rest at room temperature for at least 5 minutes following the addition of LDR. Set the instrument (Envision) to perform a single 5 second “plate shake” prior to reading the first assay well. Read time may be 0.5 second (500 mSec) per well.

[1] = FXR agonistic potency range, CHO reporter cells expressing human NR1H4, 22 hours incubation

Sequence of Human FXR (NR1H4) (Q96RI1 whole entry, the tested form may be a part): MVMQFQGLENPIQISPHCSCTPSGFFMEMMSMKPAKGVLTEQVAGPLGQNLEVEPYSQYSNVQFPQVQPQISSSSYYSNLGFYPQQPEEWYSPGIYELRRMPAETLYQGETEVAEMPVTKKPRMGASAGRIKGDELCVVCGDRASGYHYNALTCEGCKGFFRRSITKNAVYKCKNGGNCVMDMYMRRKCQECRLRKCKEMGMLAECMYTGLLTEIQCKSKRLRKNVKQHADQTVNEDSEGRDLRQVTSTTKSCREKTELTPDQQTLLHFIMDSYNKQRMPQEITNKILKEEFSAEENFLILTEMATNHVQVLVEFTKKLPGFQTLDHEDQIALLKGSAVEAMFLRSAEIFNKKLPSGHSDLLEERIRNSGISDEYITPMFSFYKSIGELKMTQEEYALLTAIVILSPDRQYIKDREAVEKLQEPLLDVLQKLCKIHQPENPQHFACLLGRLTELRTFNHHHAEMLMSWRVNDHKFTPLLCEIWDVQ

Row | Compound | EC50 [1] [nM] | Efficacy (%) | Emax [%] | EC50 [nM]
1 | CC[C@H]1[C@@H](O)[C@@H]2[C@H](CC[C@]3(C)[C@@H]([C@H](C)CCC(=O)NS(C)(=O)=O)CC[C@@H]23)[C@@]2(C)CC[C@@H](O)C[C@@H]12 [Example 1] |  |  | 254 | 100 to 1000
2 | CCC1C(O)C2C3CCC(C(C)CCC(=O)NS(=O)(=O)CC)C3(C)CCC2C2(C)CCC(O)CC12 (stereo not drawn) [Example 2] | 100 to 1000 | 258 |  | 
3 | CCC1C(O)C2C3CCC(C(C)CCC(=O)NS(=O)(=O)C(C)C)C3(C)CCC2C2(C)CCC(O)CC12 (stereo not drawn) [Example 3] | 100 to 1000 | 289 |  | 
4 | CCCCS(=O)(=O)NC(=O)CCC(C)C1CCC2C3C(O)C(CC)C4CC(O)CCC4(C)C3CCC12C (stereo not drawn) [Example 4] | 100 to 1000 | 376 |  | 
5 | CCC1C(O)C2C3CCC(C(C)CCC(=O)NS(=O)(=O)C(C)(C)C)C3(C)CCC2C2(C)CCC(O)CC12 (stereo not drawn) [Example 5] | < 100 | 218 |  | 
6 | CCCS(=O)(=O)NC(=O)CCC(C)C1CCC2C3C(O)C(CC)C4CC(O)CCC4(C)C3CCC12C (stereo not drawn) [Example 6] | 100 to 1000 | 295 |  | 
7 | C=CCS(=O)(=O)NC(=O)CCC(C)C1CCC2C3C(O)C(CC)C4CC(O)CCC4(C)C3CCC12C (stereo not drawn) [Example 9] | 100 to 1000 | 248 |  | 
8 | CCC1C(O)C2C3CCC(C(C)CCC(=O)NS(=O)(=O)C(F)(F)F)C3(C)CCC2C2(C)CCC(O)CC12 (stereo not drawn) [Example 10] | 1000 to 10000 | 244 |  | 
9 | CCC1C(O)C2C3CCC(C(C)CCC(=O)NS(=O)(=O)C4CC4)C3(C)CCC2C2(C)CCC(O)CC12 (stereo not drawn) [Example 11] | 100 to 1000 | 315 |  | 
10 | CCC1C(O)C2C3CCC(C(C)CCC(=O)NS(=O)(=O)C4(C)CC4)C3(C)CCC2C2(C)CCC(O)CC12 (stereo not drawn) [Example 12] | 100 to 1000 | 331 |  | 
11 | CCC1C(O)C2C3CCC(C(C)CCC(=O)NS(=O)(=O)N4CCOCC4)C3(C)CCC2C2(C)CCC(O)CC12 (stereo not drawn) [Example 16] | 1000 to 10000 | 219 |  | 
12 | CC[C@@H]1C2C[C@H](O)CCC2(C)[C@H]2CCC3(C)C([C@H](C)CCC(=O)NS(=O)(=O)c4ccccc4Cl)CC[C@H]3[C@@H]2[C@@H]1O (stereo partly drawn) [Example 451] |  |  | 274 | 100 to 1000

Further lines, with some results ahead:

Row | EC50 [1] [nM] | Efficacy (%) | Compound | Emax [%] | EC50 [nM]
13 | 1000 to 10000 | 178 | CCC1C(O)C2C3CCC(C(C)CCC(=O)NS(=O)(=O)Cc4ccccc4)C3(C)CCC2C2(C)CCC(O)CC12 (stereo not drawn) [Example 7] |  | 
14 | 1000 to 10000 | 349 | CCC1C(O)C2C3CCC(C(C)CCC(=O)NS(N)(=O)=O)C3(C)CCC2C2(C)CCC(O)CC12 (stereo not drawn) [Example 17] |  | 
15 | < 100 | 329 | CC[C@H]1[C@@H](O)[C@@H]2[C@H](CC[C@]3(C)[C@@H]([C@H](C)CCC(=O)NS(=O)(=O)c4ccccc4)CC[C@@H]23)[C@@]2(C)CC[C@@H](O)C[C@@H]12 [Example 18] |  | 
16 | 100 to 1000 | 176 | CCC1C(O)C2C3CCC(C(C)CCC(=O)NS(=O)(=O)c4ccccc4N)C3(C)CCC2C2(C)CCC(O)CC12 (stereo not drawn) [Example 19] |  | 
17 | 100 to 1000 | 348 | CCC1C(O)C2C3CCC(C(C)CCC(=O)NS(=O)(=O)c4ccccc4C)C3(C)CCC2C2(C)CCC(O)CC12 (stereo not drawn) [Example 20] |  | 
18 | 100 to 1000 | 259 | CCC1C(O)C2C3CCC(C(C)CCC(=O)NS(=O)(=O)c4ccccc4F)C3(C)CCC2C2(C)CCC(O)CC12 (stereo not drawn) [Example 22] |  | 
19 | 100 to 1000 | 280 | CCC1C(O)C2C3CCC(C(C)CCC(=O)NS(=O)(=O)c4ccccc4[N+](=O)[O-])C3(C)CCC2C2(C)CCC(O)CC12 (stereo not drawn) [Example 23] |  | 
20 | < 100 | 271 | CCC1C(O)C2C3CCC(C(C)CCC(=O)NS(=O)(=O)c4ccc(C)cc4)C3(C)CCC2C2(C)CCC(O)CC12 (stereo not drawn) [Example 24] |  | 
21 | 1000 to 10000 | 347 | CCC1C(O)C2C3CCC(C(C)CCC(=O)NS(=O)(=O)F)C3(C)CCC2C2(C)CCC(O)CC12 (stereo not drawn) [Example 25] |  | 
